The values that follow come from paper PMC9981942, “Pharmacokinetics and tissue distribution of Ramulus Mori (Sangzhi) alkaloids in rats and its effects on liver enzyme activity” (Frontiers in Pharmacology, 2023).

The inhibition is the percentage by which the read-out fell short of the control. Lower therefore signals a weak effect.

Common to all, as to test: in vitro
Series [1] has as its target T1, CYP2C6 (Rattus norvegicus, UniProt P05178).
T1 sequence (P05178 1-490): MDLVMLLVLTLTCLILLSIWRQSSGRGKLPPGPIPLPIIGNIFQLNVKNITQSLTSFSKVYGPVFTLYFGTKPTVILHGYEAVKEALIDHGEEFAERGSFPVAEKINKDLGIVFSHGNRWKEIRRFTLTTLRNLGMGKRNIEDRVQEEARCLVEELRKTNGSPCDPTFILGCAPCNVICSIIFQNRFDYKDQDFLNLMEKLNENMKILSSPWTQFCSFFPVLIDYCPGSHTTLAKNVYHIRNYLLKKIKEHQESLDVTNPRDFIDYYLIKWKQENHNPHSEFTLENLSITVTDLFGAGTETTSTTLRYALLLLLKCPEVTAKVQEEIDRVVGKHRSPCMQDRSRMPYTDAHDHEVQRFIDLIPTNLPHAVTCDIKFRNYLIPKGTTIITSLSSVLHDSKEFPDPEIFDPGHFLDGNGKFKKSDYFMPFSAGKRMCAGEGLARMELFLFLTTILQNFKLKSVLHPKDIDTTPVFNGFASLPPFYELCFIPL
The note with it: liver microsomes, pH 7.4, probe diclofenac sodium (20 μM). In general terms: Liver microsomes are a subcellular fraction often used to study metabolism.

In series [2] the target is T2, CYP1A2 (Homo sapiens, UniProt P05177).
T2 sequence (P05177 1-516): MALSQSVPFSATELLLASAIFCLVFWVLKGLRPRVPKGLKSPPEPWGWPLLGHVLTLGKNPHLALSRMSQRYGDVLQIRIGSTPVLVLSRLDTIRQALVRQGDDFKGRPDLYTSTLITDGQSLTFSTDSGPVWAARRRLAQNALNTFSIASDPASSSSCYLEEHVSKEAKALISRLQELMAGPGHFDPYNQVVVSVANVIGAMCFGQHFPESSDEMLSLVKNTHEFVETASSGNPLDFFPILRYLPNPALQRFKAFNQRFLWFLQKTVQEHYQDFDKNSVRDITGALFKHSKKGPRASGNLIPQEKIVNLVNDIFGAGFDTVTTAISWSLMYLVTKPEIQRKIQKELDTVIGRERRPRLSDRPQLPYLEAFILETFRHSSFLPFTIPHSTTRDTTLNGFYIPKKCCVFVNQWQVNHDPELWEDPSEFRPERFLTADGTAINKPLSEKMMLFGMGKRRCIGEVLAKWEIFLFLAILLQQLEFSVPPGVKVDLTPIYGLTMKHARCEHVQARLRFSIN
The note with it: microsomes, pH 7.4.

The target of series [3] is T3, CYP1A2 (Rattus norvegicus, UniProt P04799).
T3 sequence (P04799 1-513): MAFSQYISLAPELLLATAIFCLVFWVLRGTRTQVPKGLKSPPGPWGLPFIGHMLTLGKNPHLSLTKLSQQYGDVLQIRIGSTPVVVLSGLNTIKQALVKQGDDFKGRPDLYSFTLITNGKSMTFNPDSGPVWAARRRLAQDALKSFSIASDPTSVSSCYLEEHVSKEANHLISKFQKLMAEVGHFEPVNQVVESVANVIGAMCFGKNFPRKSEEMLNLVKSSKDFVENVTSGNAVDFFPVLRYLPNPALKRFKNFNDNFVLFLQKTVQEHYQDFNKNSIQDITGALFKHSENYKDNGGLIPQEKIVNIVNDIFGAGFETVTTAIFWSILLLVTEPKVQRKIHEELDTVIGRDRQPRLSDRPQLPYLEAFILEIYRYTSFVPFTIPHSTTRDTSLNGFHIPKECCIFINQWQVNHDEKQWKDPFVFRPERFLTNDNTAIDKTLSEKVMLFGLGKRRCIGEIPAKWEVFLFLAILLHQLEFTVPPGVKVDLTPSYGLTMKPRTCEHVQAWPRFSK
To be noted: liver microsomes, pH 7.4, probe phenacetin (50 μM).

The target in series [4] is T4, CYP3A2 (Rattus norvegicus, UniProt P05183).
T4 sequence (P05183 1-504): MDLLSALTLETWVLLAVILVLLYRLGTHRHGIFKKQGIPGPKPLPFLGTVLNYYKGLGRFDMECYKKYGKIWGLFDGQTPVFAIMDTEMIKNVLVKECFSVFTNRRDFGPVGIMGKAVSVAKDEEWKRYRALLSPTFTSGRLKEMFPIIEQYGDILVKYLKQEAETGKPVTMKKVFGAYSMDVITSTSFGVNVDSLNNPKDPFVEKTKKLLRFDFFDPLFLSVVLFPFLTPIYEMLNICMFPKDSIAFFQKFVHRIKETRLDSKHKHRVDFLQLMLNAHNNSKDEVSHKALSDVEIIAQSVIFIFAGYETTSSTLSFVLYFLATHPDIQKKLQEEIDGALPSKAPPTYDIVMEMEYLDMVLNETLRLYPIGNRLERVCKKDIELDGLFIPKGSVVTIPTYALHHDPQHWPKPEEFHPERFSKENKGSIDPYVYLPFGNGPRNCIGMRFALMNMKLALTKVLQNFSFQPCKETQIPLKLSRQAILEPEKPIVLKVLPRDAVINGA
To be noted: liver microsomes, pH 7.4, probe midazolam (5 μM).

`Nc1ccc(S(=O)(=O)Nc2ccnn2-c2ccccc2)cc1` [sulfaphenazole] came in with an inhibition at 10 min, 50 μM in series [1] of 88%. Compound `Cc1nc2c([nH]1)c(=O)n(C)c(=O)n2Cc1ccco1` [furafylline] displayed an inhibition at 30 min, 10 μM in series [2] of 71.8%. The compound further returned an inhibition at 30 min, 50 μM in series [3] of 66.3%. On to `CC(=O)N1CCN(c2ccc(OCC3COC(Cn4ccnc4)(c4ccc(Cl)cc4Cl)O3)cc2)CC1` (stereo not shown) [ketoconazole], for which the inhibition at 5 min, 1 μM in series [4] turned out to be 76.4%.
